Patent US20240174727A1, “LONG-ACTING NATRIURETIC PEPTIDES AND USES THEREOF” (Eli Lilly and Company, priority 2022, published 2024)
Where two headings read alike, the source gives them in different places. Numbered stars: 1 amine (or outer) side, 2 acyl side, 3 side chain; on linkers, the order of the positions; unused ones are H or OH. Bridge positions count the residues as written; N and C are the ends. Square brackets hold non-standard residues; d marks the D form. Peptide text beside a SMILES is read from it. * marks the point of attachment. PEG24 = NCCOCCOCCOCCOCCOCCOCCOCCOCCOCCOCCOCCOCCOCCOCCOCCOCCOCCOCCOCCOCCOCCOCCOCCOCCC(=O)O; C20 diacid = O=C(O)CCCCCCCCCCCCCCCCCCC(=O)*; γGlu = O=C(O)[C@H](CCC(=O)[*:2])N[*:1]; 4Pal = N[C@@H](Cc1ccncc1)C(=O)O; Dap = NC[C@H](N)C(=O)O; CH2 = C([*:1])[*:2]; βAla = NCCC(=O)O

Target: T1, rat NPRA (Rattus norvegicus, UniProt P18910)
T1 construct: Full-Length cDNA Cloning and Generation of Cell Lines Overexpressing Natriuretic Peptide Receptors (NPRs); expressed in transfected cells; host or cells: Jump-in T-Rex HEK293 cells, pJTI R4 CMV-TO MCS pA vector, tetracycline induction
T1 sequence (P18910 29-1057): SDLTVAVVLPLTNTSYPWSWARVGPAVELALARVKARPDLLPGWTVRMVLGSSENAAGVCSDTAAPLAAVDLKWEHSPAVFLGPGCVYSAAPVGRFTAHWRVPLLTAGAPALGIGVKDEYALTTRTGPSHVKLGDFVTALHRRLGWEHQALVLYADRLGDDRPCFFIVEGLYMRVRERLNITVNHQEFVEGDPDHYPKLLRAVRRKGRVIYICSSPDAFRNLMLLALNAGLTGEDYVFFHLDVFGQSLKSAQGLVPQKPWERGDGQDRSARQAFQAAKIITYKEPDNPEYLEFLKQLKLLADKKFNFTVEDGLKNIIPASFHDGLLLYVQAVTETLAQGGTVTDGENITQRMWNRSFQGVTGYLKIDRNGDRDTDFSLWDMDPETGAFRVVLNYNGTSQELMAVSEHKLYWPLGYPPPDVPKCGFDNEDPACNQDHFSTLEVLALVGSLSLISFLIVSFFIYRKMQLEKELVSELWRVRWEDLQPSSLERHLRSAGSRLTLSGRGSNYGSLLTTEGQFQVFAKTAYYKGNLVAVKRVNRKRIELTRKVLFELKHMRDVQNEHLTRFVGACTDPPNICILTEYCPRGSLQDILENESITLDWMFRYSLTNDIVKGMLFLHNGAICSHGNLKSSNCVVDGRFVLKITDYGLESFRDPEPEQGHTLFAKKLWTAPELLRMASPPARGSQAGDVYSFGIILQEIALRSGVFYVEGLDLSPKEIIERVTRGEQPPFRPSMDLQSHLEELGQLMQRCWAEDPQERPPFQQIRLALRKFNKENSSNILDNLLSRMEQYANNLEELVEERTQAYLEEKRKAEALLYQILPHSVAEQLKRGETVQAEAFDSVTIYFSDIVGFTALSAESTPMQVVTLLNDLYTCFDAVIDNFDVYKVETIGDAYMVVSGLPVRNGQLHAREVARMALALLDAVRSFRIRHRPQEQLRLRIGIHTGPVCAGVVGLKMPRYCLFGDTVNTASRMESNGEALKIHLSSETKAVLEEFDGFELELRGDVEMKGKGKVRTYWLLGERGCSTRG
Test: Rat NPRA cGMP activity assay (HTRF) in HEK293 cells overexpressing NPRA
Format: cell-based
How it was run: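 cGMP measured by HTRF and scaled between buffer (minimum) and 100 nM amidated rat ANP (maximum). Polypeptides in 10-fold steps from 10 μM to 1 pM, 0.5% DMSO, 0.5 mM IBMX, 40 min at room temperature, on induced NPRA-overexpressing HEK293 cells.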

[1] = assay buffer with 0.1% BSA, read-out: cGMP Assay (EC50, pM) w/BSA rNPRA
[2] = assay buffer with 0.1% casein, read-out: cGMP Assay (EC50, pM) w/Casein rNPRA
[3] = cGMP Assay (EC50, pM) w/BSA rNPRA, assay buffer with 0.1% BSA
[4] = cGMP Assay (EC50, pM) w/Casein rNPRA, assay buffer with 0.1% casein

Molecule	EC50 [1] [pM]	EC50 [2] [pM]	EC50 [3] [pM]	EC50 [4] [pM]
{C20 diacid-γGlu}-EKEKEKGEKPRSSCFG[Dap]RIDRIGHQSGLGCPSFRHGSPSSGAPPPS-NH2 (linker 14-30 via CH2) [Example 137]	2.19e+06	76900	–	–
CC[C@H](C)[C@@H]1NC(=O)[C@H](CCCNC(=N)N)NC(=O)[C@H](CC(=O)O)NC(=O)[C@H]([C@@H](C)CC)NC(=O)[C@H](CCCNC(=N)N)NC(=O)CNC(=O)CNC(=O)[C@H](Cc2ccccc2)NC(=O)[C@@H](NC(=O)[C@H](CO)NC(=O)[C@H](CO)NC(=O)[C@H](CCCNC(=N)N)NC(=O)CCNC(=O)[C@H](CCC(=O)O)NC(=O)[C@H](CCCCN)NC(=O)CNC(=O)[C@H](CCCCN)NC(=O)[C@H](CCC(=O)O)NC(=O)[C@H](CCCCN)NC(=O)[C@H](CCC(=O)O)NC(=O)[C@H](CCCCN)NC(=O)[C@H](CCC(=O)O)NC(=O)CC[C@H](NC(=O)CCCCCCCCCCCCCCCCCCC(=O)O)C(=O)O)CSCSC[C@@H](C(=O)N2CCC[C@H]2C(=O)N[C@@H](CO)C(=O)N[C@@H](Cc2ccccc2)C(=O)N[C@@H](CCCNC(=N)N)C(=O)N[C@@H](Cc2c[nH]cn2)C(=O)NCC(=O)NCC(=O)N2CCC[C@H]2C(=O)N[C@@H](CO)C(=O)N[C@@H](CO)C(=O)NCC(=O)N[C@@H](C)C(=O)N2CCC[C@H]2C(=O)N2CCC[C@H]2C(=O)N2CCC[C@H]2C(=O)N[C@@H](CO)C(N)=O)NC(=O)CNC(=O)[C@H](CC(C)C)NC(=O)CNC(=O)[C@H](CO)NC(=O)[C@H](Cc2ccc(O)cc2)NC(=O)[C@H](Cc2c[nH]cn2)NC(=O)CNC1=O [Example 58]	–	–	1.38e+06	–
CC[C@H](C)[C@@H]1NC(=O)[C@H](CCCNC(=N)N)NC(=O)[C@H](CC(=O)O)NC(=O)[C@H]([C@@H](C)CC)NC(=O)[C@H](CCCNC(=N)N)NC(=O)CNC(=O)CNC(=O)[C@H](Cc2ccccc2)NC(=O)[C@@H](NC(=O)[C@H](CO)NC(=O)[C@H](CO)NC(=O)[C@H](CCCNC(=N)N)NC(=O)[C@H](CCCNC(=N)N)NC(=O)[C@H](Cc2ccncc2)NC(=O)[C@H](CO)NC(=O)COCCOCCNC(=O)COCCOCCNC(=O)COCCOCCNC(=O)COCCOCCNC(=O)COCCOCCNC(=O)COCCOCCNC(=O)CNC(=O)[C@H](CCCCN)NC(=O)[C@H](CCC(=O)O)NC(=O)[C@H](CCCCN)NC(=O)[C@H](CCC(=O)O)NC(=O)[C@H](CCCCN)NC(=O)[C@H](CCC(=O)O)NC(=O)CC[C@H](NC(=O)CCCCCCCCCCCCCCCCCCC(=O)O)C(=O)O)CSCSC[C@@H](C(=O)N2CCC[C@H]2C(=O)N[C@@H](CO)C(=O)N[C@@H](Cc2ccccc2)C(=O)N[C@@H](CCCNC(=N)N)C(=O)N[C@@H](Cc2c[nH]cn2)C(=O)NCC(=O)NCC(=O)N[C@@H](CCCCN)C(=O)N[C@@H](CO)C(=O)N[C@@H](CO)C(=O)NCC(=O)N[C@@H](C)C(=O)N2CCC[C@H]2C(=O)N2CCC[C@H]2C(=O)N2CCC[C@H]2C(=O)N[C@@H](CO)C(N)=O)NC(=O)CNC(=O)[C@H](CC(C)C)NC(=O)CNC(=O)[C@H](CO)NC(=O)[C@H](CCC(N)=O)NC(=O)[C@H](Cc2c[nH]cn2)NC(=O)CNC1=O [Example 86]	–	17900	–	–
{C20 diacid-γGlu}-EKEKEKG[PEG24]S[4Pal]RRSSCFGGRIDRIGHQSGLGCPSFRHGGPSSGAPPPS-NH2 (linker 15-31 via CH2) [Example 61]	–	–	463000	–
{C20 diacid-γGlu}-EKEKEKGS[4Pal]RRSSCFGGRIGRIGHQSGLGCPSFRHGGPSSGAPPPS-NH2 (disulfide 14-30) [Example 29]	–	–	–	16800
CC[C@H](C)[C@@H]1NC(=O)[C@H](CCCNC(=N)N)NC(=O)[C@H](CC(=O)O)NC(=O)[C@H]([C@@H](C)CC)NC(=O)[C@H](CCCNC(=N)N)NC(=O)[C@H](CCCCN)NC(=O)CNC(=O)[C@H](Cc2ccccc2)NC(=O)[C@@H](NC(=O)[C@H](CO)NC(=O)[C@H](CO)NC(=O)[C@H](CCCNC(=N)N)NC(=O)CCNC(=O)[C@H](CCCCN)NC(=O)[C@H](CCC(=O)O)NC(=O)COCCOCCNC(=O)COCCOCCNC(=O)COCCOCCNC(=O)COCCOCCNC(=O)COCCOCCNC(=O)COCCOCCNC(=O)CNC(=O)[C@H](CCCCN)NC(=O)[C@H](CCC(=O)O)NC(=O)[C@H](CCCCN)NC(=O)[C@H](CCC(=O)O)NC(=O)[C@H](CCCCN)NC(=O)[C@H](CCC(=O)O)NC(=O)CC[C@H](NC(=O)CCCCCCCCCCCCCCCCCCC(=O)O)C(=O)O)CSCSC[C@@H](C(=O)N2CCC[C@H]2C(=O)N[C@@H](CO)C(=O)N[C@@H](Cc2ccccc2)C(=O)N[C@@H](CCCNC(=N)N)C(=O)N[C@@H](Cc2c[nH]cn2)C(=O)NCC(=O)NCC(=O)N[C@@H](CCCCN)C(=O)N[C@@H](CO)C(=O)N[C@@H](CO)C(=O)NCC(=O)N[C@@H](C)C(=O)N2CCC[C@H]2C(=O)N2CCC[C@H]2C(=O)N2CCC[C@H]2C(=O)N[C@@H](CO)C(N)=O)NC(=O)CNC(=O)[C@H](CC(C)C)NC(=O)CNC(=O)[C@H](CO)NC(=O)[C@H](CCC(N)=O)NC(=O)[C@H](Cc2c[nH]cn2)NC(=O)CNC1=O [Example 89]	–	13800	–	–
CC[C@H](C)[C@@H]1NC(=O)[C@H](CCCNC(=N)N)NC(=O)[C@H](CC(=O)O)NC(=O)[C@H]([C@@H](C)CC)NC(=O)[C@H](CCCNC(=N)N)NC(=O)[C@H](CCCCN)NC(=O)CNC(=O)[C@H](Cc2ccccc2)NC(=O)[C@@H](NC(=O)[C@H](CO)NC(=O)[C@H](CO)NC(=O)[C@H](CCCNC(=N)N)NC(=O)CCNC(=O)[C@H](CCCCN)NC(=O)[C@H](CCC(=O)O)NC(=O)CCOCCOCCOCCOCCOCCOCCOCCOCCOCCOCCOCCOCCOCCOCCOCCOCCOCCOCCOCCOCCOCCOCCOCCOCCNC(=O)CNC(=O)[C@H](CCCCN)NC(=O)[C@H](CCC(=O)O)NC(=O)[C@H](CCCCN)NC(=O)[C@H](CCC(=O)O)NC(=O)[C@H](CCCCN)NC(=O)[C@H](CCC(=O)O)NC(=O)CC[C@H](NC(=O)CCCCCCCCCCCCCCCCCCC(=O)O)C(=O)O)CSCSC[C@@H](C(=O)N2CCC[C@H]2C(=O)N[C@@H](CO)C(=O)N[C@@H](Cc2ccccc2)C(=O)N[C@@H](CCCNC(=N)N)C(=O)N[C@@H](Cc2c[nH]cn2)C(=O)NCC(=O)NCC(=O)N2CCC[C@H]2C(N)=O)NC(=O)CNC(=O)[C@H](CC(C)C)NC(=O)CNC(=O)[C@H](CO)NC(=O)[C@H](CCC(N)=O)NC(=O)[C@H](Cc2c[nH]cn2)NC(=O)CNC1=O [Example 130] ({C20 diacid-γGlu}-EKEKEKG[PEG24]EK[βAla]RSSCFGKRIDRIGHQSGLGCPSFRHGGP-NH2; linker 15-31 via CH2)	197000	9170	–	–
{C20 diacid-γGlu}-EKEKEKGEKPRSSCFG[Dap]RIDRIGHYSGLGCPSFRHGSPSSGAPPPS-NH2 (linker 14-30 via CH2) [Example 136]	2.43e+06	32900	–	–
CC[C@H](C)[C@@H]1NC(=O)[C@H](CCCNC(=N)N)NC(=O)[C@H](CC(=O)O)NC(=O)[C@H]([C@@H](C)CC)NC(=O)[C@H](CCCNC(=N)N)NC(=O)CNC(=O)CNC(=O)[C@H](Cc2ccccc2)NC(=O)[C@@H](NC(=O)[C@H](CO)NC(=O)[C@H](CO)NC(=O)[C@H](CCCNC(=N)N)NC(=O)CCNC(=O)[C@H](CCCCN)NC(=O)[C@H](CCC(=O)O)NC(=O)CNC(=O)[C@H](CCCCN)NC(=O)[C@H](CCC(=O)O)NC(=O)[C@H](CCCCN)NC(=O)[C@H](CCC(=O)O)NC(=O)[C@H](CCCCN)NC(=O)[C@H](CCC(=O)O)NC(=O)CC[C@H](NC(=O)CCCCCCCCCCCCCCCCCCC(=O)O)C(=O)O)CSCSC[C@@H](C(=O)N2CCC[C@H]2C(=O)N[C@@H](CO)C(=O)N[C@@H](Cc2ccccc2)C(=O)N[C@@H](CCCNC(=N)N)C(=O)N[C@@H](Cc2c[nH]cn2)C(=O)NCC(=O)NCC(=O)N2CCC[C@H]2C(=O)N[C@@H](CO)C(=O)N[C@@H](CO)C(=O)NCC(=O)N[C@@H](C)C(=O)N2CCC[C@H]2C(=O)N2CCC[C@H]2C(=O)N2CCC[C@H]2C(=O)N[C@@H](CO)C(N)=O)NC(=O)CNC(=O)[C@H](CC(C)C)NC(=O)CNC(=O)[C@H](CO)NC(=O)[C@H](Cc2ccc(O)cc2)NC(=O)[C@H](Cc2c[nH]cn2)NC(=O)CNC1=O [Example 56]	–	–	1.38e+06	11200
